Measured values reported in patent publication US6214859A, “Ethylamine derivatives” (Fujimoto Brothers Co., Ltd., priority 1997, dated 2001).

What was measured:
[1] = tested on: rats reduced learning ability by tetrabenazine; experiment: Conditioned avoidance task in the shuttle box (tetrabenazine-treated rats); type: in vivo, rat; conditions: tetrabenazine 1 mg/kg s.c., significance and direction
In short: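 Male and female rats (200–220 g) were trained in a shuttle box (light/buzzer conditioned stimulus, 100 trials/day for 5 days). Tetrabenazine 1 mg/kg s.c. was given 1 h before testing, with compound at 1, 2, 2.5 or 5 mg/kg s.c. given together with tetrabenazine. CARs, EFs and IRs were counted automatically and analysed by multi-way ANOVA.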

[2] = tested on: dopamine release, striatum; experiment: Release of biogenic amines from brain tissue: dopamine, striatum; type: in vivo, Wistar rats
[3] = tested on: dopamine release, substantia nigra; experiment: Release of biogenic amines from brain tissue: dopamine, substantia nigra; type: in vivo, Wistar rats
[4] = tested on: dopamine release, tuberculum olfactorium; experiment: Release of biogenic amines from brain tissue: dopamine, tuberculum olfactorium; type: in vivo, Wistar rats
[5] = tested on: noradrenaline release, locus coeruleus; experiment: Release of biogenic amines from brain tissue: noradrenaline, locus coeruleus; type: in vivo, Wistar rats
[6] = tested on: serotonin release, raphe; experiment: Release of biogenic amines from brain tissue: serotonin, raphe; type: in vivo, Wistar rats
[7] = tested on: mice; experiment: Toxicity test in mice in the single administration; type: in vivo, mouse; conditions: 50 mg/kg s.c., two weeks
Procedure: After the compounds of Examples 3, 25, 27 and 28 were administered subcutanously to mice, general symptoms of the mice were observed every day for two weeks.

In the case of `CCCNC(CCC)Cc1ccc2ccccc2c1.Cl` (stereo not drawn) [Compound No. 3, 1-(2-Naphthyl)-2-propylaminopentane Hydrochloride], the “Escape Failures (EFs)” value ([1]; 1 mg/kg s.c.) is reported as “**** .dwnarw”, the “Condition Avoidance Reflex (CARs)” value ([1]; 1 mg/kg s.c., Hydrochloride) is reported as “**** .Arrow-up bold” and the “Condition Avoidance Reflex (CARs)” value ([1]; 2 mg/kg s.c.) is reported as “**** .Arrow-up bold”. The “Escape Failures (EFs)” value ([1]; 2 mg/kg s.c.) was “**** .dwnarw”, the “Condition Avoidance Reflex (CARs)” value ([1]; 2.5 mg/kg s.c.) was “**** .Arrow-up bold” and the “Escape Failures (EFs)” value ([1]; 2.5 mg/kg s.c.) was “*** .dwnarw”. For the same compound, the “Intersignal Reactions (IRs)” value ([1]; 2.5 mg/kg s.c.) was “* .dwnarw”, the “Condition Avoidance Reflex (CARs)” value ([1]; 5 mg/kg s.c.) was “**** .Arrow-up bold” and the “Escape Failures (EFs)” value ([1]; 5 mg/kg s.c.) was “**** .dwnarw”. The “Release of dopamine, striatum” value ([2]; 0.25 mg/kg s.c.) was 3.4 ± 0.03 nmol/g tissue, for 20 min, the “Release of dopamine, striatum” value ([2]; 1.00 mg/kg s.c., Hydrochloride) was 3.9 ± 0.12 nmol/g tissue, for 20 min and the “Release of dopamine, striatum” value ([2]; 5.00 mg/kg s.c.) was 3.8 ± 0.04 nmol/g tissue, for 20 min. The “Release of dopamine, substantia nigra” value ([3]; 0.25 mg/kg s.c.) was 4.9 ± 0.07 nmol/g tissue, for 20 min, the “Release of dopamine, substantia nigra” value ([3]; 1.00 mg/kg s.c., Hydrochloride) was 4.5 ± 0.07 nmol/g tissue, for 20 min and the “Release of dopamine, substantia nigra” value ([3]; 5.00 mg/kg s.c.) was 9.0 ± 0.50 nmol/g tissue, for 20 min. For the same compound, the “Release of dopamine, tuberculum olfactorium” value ([4]; 0.25 mg/kg s.c.) was 4.3 ± 0.09 nmol/g tissue, for 20 min, the “Release of dopamine, tuberculum olfactorium” value ([4]; 1.00 mg/kg s.c., Hydrochloride) was 5.2 ± 0.12 nmol/g tissue, for 20 min and the “Release of dopamine, tuberculum olfactorium” value ([4]; 5.00 mg/kg s.c.) was 5.1 ± 0.39 nmol/g tissue, for 20 min. The “Release of noradrenaline, locus coeruleus” value (“Release of noradrenaline” for short) ([5]; 0.25 mg/kg s.c.) was 4.4 ± 0.10 nmol/g tissue, for 20 min, the “Release of noradrenaline” value ([5]; 1.00 mg/kg s.c., Hydrochloride) was 2.6 ± 0.10 nmol/g tissue, for 20 min and the “Release of noradrenaline” value ([5]; 5.00 mg/kg s.c.) was 2.2 ± 0.11 nmol/g tissue, for 20 min. The “Release of serotonin, raphe” value ([6]; 0.25 mg/kg s.c.) was 0.958 ± 0.03 nmol/g tissue, for 20 min, the “Release of serotonin, raphe” value ([6]; 5.00 mg/kg s.c.) was 1.215 ± 0.14 nmol/g tissue, for 20 min and the survival [7] was “all the mice survived”.
